# According to US9708305B2, “Substituted 1,2,3,4-tetrahydroisoquinoline derivatives for the treatment of hormone-dependent diseases” (UNIVERSITÉ LAVAL, priority 2013, dated 2017):
# Assays:
# Format in all cases: cell-based
# [1] = system: T-47D cells; assay: T-47D cell proliferation in presence of E2 (antiestrogenicity); conditions: Homo sapiens, T47D; read-out: Breast cancer cells T-47D (ER+) Antagonist activity (%)
# [2] = system: alkaline phosphatase (ALP) activity in Saos-2 cells; assay: Alkaline phosphatase (ALP) activity in Saos-2 cells
# [3] = system: MCF-7 (ER+) cells; assay: Proliferative (estrogenic) activity on MCF-7 (ER+) cells; conditions: 0.1 nM; 7 days; control 100%
# Experimental: The next step was to determine the presence or absence of estrogenic activity. To do so, cell proliferative assays were carried out on MCF-7 cells. […] Phenols of the corresponding sulfamate library 3-EO and 4-EO are referred to as library 3′-EO and library 4′-EO, respectively.
# This cell assay was carried out according to a procedure previously described to determine the estrogenic activity of enzyme inhibitors on the growth of estrogen-sensitive MCF-7 cells.^77 All chemicals tested were first dissolved in DMSO and subsequent dilutions were done in the proper cell culture media. The final concentration of DMSO in the culture medium was 0.1% or less. 3-(4,5-dimethylthiazol-2-yl)-5-(3-carboxymethoxyphenyl)-2-(4-sulfophenyl)-2-H-tetrazolium (MTS) was used as an indirect colorimetric measurement of cell proliferation according to the manufacturer's instructions (Promega, Madison, Wis.). At the end of the treatments, 20 μL of MTS solution was added to each well (100 μL) and the MCF-7 cells were incubated 4 h at 37° C. The absorbance at 490 nm was then measured with a Thermo max microplate reader (Molecular Devices, Sunnyvale, Calif.). The control (culture media+DMSO) is set to 100% of cell proliferation.
# [4] = system: Saos-2 (ER+) cells; assay: Proliferative activity on Saos-2 (ER+) cells, phenol library; conditions: 1 μM (stated for reference compounds); 7 days; control 100%
# Experimental: Estrogens are known to have a beneficial effect on bones. […] The phenol derivatives 3′-EO-09 to 3′-EO-11 and 3′-EO-14 to 3′-EO-17 were tested on the osteoblast-like cell line Saos-2 to further evaluate their SERM capacity (FIG. 13A).
# The osteoblast-like Saos-2 cells were maintained in culture flasks (175 cm^2 growth area, BD Falcon) at 37° C. in a 5% CO2 humidified atmosphere and grown in McCoy's 5A medium supplemented with 10% fetal bovine serum (FBS), penicillin (100 IU/mL) and streptomycin (100 μg/mL). Penicillin/streptomycin mix, L-Glutamine, normal and charcoal-stripped FBS were purchased from Wisent, Inc. (St-Bruno, QC, Canada), phenol-red free McCoy's 5A was purchased from PromoCell (Heidelberg, Germany). Chemicals tested were first dissolved in DMSO and subsequent dilutions were done in the cell culture medium. The final concentration of DMSO in the culture medium was 0.1% or less. For the proliferation assay, the […] FBS in the culture medium was replaced with 10% charcoal-stripped FBS. The cells were seeded in 96-well plates at a density of 10 000 cells/well and allowed to attach 24 h. After 24 h, the phenolic compounds diluted in culture medium were added to the wells and replaced every 2 days for 7 days of treatment. As reported above, MTS was used as an indirect colorimetric measurement of cell proliferation according to the manufacturer's instructions, except the plate were incubated 2 h instead of 4 h.
# [5] = system: alkaline phosphatase activity in Saos-2 cells; assay: Alkaline phosphatase assay (Saos-2 cells), phenol library; conditions: 1 nM; control (no treatment) fixed at 100%
# Experimental: We also investigated the effect of selected phenol derivatives on alkaline phosphatase activity in Saos-2 cells (FIG. 13B).
# Saos-2 cells were used similarly as reported in the cell proliferation assay. The cells were seeded at a density of 2 000 cells/well and treated for 3 days with each compound to be tested. The alkaline phosphatase (ALP) activity was measured using the Sensolyte® pNPP Alkaline Phosphatase Assay Kit *Colorimetric* (AnaSpec, Freemont, Calif.) following the manufacturer's protocol. Briefly, after three days of treatment, the cells were washed twice with washing buffer (provided with the kit) and lysed with 0.2% Triton X-100. The cell lysates were centrifuged and the supernatants were used to determine ALP activity. The supernatants were deposed in a 96-well plate and incubated for 30 minutes with a p-nitrophenyl phosphate solution (provided with the kit). The absorbance at 405 nm was measured with a Thermo max microplate reader (Molecular Devices, Sunnyvale, Calif.). The control (culture media+DMSO) is set to 100% of alkaline phosphatase activity.
smiles,measurement,setting,value
"C[C@]12CC[C@@H]3c4ccc(O)cc4CC[C@H]3[C@@H]1CC[C@@H]2O [E2, 17β-estradiol, reference compound]",inhibition at 1 µM,[1],0%
same,Bone cells Saos-2 (ER+) SERM effect Alkaline phosphatase activity (%),[2]; 0.1 nM,100%
same,"stimulation of ALP activity in presence of ICI-164,384 or MPP + PHTPP","[2]; 0.1 nM compound, antagonists 1 μM, 3 days",completely blocked the stimulation
same,proliferation of MCF-7 (ER+) cells,[3],176%
same,proliferation of Saos-2 cells,[4],144%
same,ALP activity in Saos-2 cells,[5],148%
